According to US8658591B2, “Multi-LEU peptides and analogues thereof as selective PACE4 inhibitors and effective antiproliferative agents” (priority 2008, dated 2014):

What was measured:
Type in all cases: biochemical
[1] = target: PC5/6 (Homo sapiens, UniProt Q92824); assay: Enzyme inhibition assay, fluorogenic substrate, PC5/6
Method: (§1) Enzyme inhibition assays for furin (FIG. 5D) were performed in 100 mM Hepes pH 7.5, 1 mM CaCl2, 1 mM β-mercaptoethanol, 0.5 μg/μL BSA. Assays for PC2 (FIG. 5E) were performed in 20 mM Bis-Tris pH 5,7, 1 mM CaCl2, 0.1% Brij-30. Assays for PC1/3, PC4, PACE4, PC5/6 and PC7 (FIGS. 5F, G, A, B and C respectively) were performed in 20 mM Bis-Tis pH 6.5, 1 mM CaCl2. All assays were performed with the substrate pyroGlu-Arg-[…]-Lys-Arg-methyl-coumaryl-7-amide (SEQ ID NO: 33) (PyrRTKR-MCA (SEQ ID NO: 34)) (Bachem, CA) at 100 μM for furin, PC1/3, PC4, PACE4 and PC5/6, 200 μM for PC2 and 250 μM for PC7. Assays were carried out at 37° C. for 30-60 min and real-time fluorescence was measured with an excitation wavelength of 370 nm and an emission wavelength of 460 nm using a Gemini XS™ 96-well spectrofluorometer and SoftMaxPro4™ software (Molecular Devices, CA). Inhibitory peptides were added to the enzymes at decreasing concentrations from 100 μM to 50 nM and incubated 5 minutes prior to the addition of substrate.

[2] = target: T1, PC7 (Homo sapiens, UniProt Q16549); assay: Enzyme inhibition assay, fluorogenic substrate, PC7
T1 sequence (Q16549 142-785): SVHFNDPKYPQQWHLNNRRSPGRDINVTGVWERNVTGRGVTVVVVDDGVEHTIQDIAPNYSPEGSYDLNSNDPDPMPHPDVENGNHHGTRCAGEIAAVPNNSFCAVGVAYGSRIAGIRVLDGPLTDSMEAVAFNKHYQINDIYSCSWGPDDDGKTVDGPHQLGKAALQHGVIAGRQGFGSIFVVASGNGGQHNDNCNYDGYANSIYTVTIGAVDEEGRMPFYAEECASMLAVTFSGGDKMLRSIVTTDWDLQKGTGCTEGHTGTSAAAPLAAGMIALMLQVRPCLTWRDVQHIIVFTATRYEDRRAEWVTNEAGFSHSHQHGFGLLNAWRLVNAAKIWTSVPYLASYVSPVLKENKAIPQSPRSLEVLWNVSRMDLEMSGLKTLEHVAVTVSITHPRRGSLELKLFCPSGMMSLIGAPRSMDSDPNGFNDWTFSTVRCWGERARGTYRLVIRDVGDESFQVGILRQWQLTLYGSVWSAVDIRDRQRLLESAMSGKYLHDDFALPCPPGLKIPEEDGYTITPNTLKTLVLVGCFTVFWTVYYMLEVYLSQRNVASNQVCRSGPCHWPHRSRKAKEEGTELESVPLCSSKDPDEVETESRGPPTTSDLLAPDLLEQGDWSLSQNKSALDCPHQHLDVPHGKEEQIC
Method: as §1

[3] = target: T2, PACE4 (Homo sapiens, UniProt P29122); assay: Enzyme inhibition assay, fluorogenic substrate, PACE4
T2 sequence (P29122 150-969): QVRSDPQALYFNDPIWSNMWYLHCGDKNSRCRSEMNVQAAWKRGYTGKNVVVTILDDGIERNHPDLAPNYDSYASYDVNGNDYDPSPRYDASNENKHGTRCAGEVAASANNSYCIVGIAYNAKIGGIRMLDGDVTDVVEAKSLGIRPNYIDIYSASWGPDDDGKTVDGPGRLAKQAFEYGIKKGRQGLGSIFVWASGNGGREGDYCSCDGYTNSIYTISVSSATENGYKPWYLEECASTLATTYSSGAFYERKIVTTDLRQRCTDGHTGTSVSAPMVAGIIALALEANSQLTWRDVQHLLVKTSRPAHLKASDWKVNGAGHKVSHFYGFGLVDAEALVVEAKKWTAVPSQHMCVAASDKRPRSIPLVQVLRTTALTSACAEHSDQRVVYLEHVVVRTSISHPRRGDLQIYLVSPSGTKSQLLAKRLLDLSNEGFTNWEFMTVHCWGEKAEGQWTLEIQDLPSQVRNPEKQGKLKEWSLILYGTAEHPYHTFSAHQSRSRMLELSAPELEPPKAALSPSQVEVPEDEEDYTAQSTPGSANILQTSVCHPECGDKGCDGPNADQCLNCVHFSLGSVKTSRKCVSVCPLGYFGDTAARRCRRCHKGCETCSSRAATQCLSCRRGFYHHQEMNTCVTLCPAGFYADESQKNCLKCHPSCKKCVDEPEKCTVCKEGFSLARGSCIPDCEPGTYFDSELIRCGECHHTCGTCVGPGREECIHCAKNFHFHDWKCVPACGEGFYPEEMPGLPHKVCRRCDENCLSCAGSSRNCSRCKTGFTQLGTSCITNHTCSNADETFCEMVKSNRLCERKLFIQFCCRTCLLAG
Excerpt: Those skilled in the art can easily determine PACE4 activity using routine experimentation. For example, the activity assay of PACE4 can be carried out in 96 well plates, and includes the use of a fluorogenic substrate, namely PyrRTKR-AMC (SEQ ID NO: 30) (AMC is amino-methyl-coumarin). The substrate and the purified enzyme are placed in the wells, and depending on the units of enzyme present, the AMC moiety will be cleaved at a certain rate, such a pmoles/sec. The resultant free AMC is now fluorescent and can be detected with a spectrofluorometer. The addition of inhibitors to the assay will yield progress curves that have lesser slopes. Based on these changes the inhibitory constants (Ki) is calculated (Fugere et al., 2002, J. Biol. Chem., 277:7648-56).
as §1

PC5/6, sequence (Q92824 115-1860): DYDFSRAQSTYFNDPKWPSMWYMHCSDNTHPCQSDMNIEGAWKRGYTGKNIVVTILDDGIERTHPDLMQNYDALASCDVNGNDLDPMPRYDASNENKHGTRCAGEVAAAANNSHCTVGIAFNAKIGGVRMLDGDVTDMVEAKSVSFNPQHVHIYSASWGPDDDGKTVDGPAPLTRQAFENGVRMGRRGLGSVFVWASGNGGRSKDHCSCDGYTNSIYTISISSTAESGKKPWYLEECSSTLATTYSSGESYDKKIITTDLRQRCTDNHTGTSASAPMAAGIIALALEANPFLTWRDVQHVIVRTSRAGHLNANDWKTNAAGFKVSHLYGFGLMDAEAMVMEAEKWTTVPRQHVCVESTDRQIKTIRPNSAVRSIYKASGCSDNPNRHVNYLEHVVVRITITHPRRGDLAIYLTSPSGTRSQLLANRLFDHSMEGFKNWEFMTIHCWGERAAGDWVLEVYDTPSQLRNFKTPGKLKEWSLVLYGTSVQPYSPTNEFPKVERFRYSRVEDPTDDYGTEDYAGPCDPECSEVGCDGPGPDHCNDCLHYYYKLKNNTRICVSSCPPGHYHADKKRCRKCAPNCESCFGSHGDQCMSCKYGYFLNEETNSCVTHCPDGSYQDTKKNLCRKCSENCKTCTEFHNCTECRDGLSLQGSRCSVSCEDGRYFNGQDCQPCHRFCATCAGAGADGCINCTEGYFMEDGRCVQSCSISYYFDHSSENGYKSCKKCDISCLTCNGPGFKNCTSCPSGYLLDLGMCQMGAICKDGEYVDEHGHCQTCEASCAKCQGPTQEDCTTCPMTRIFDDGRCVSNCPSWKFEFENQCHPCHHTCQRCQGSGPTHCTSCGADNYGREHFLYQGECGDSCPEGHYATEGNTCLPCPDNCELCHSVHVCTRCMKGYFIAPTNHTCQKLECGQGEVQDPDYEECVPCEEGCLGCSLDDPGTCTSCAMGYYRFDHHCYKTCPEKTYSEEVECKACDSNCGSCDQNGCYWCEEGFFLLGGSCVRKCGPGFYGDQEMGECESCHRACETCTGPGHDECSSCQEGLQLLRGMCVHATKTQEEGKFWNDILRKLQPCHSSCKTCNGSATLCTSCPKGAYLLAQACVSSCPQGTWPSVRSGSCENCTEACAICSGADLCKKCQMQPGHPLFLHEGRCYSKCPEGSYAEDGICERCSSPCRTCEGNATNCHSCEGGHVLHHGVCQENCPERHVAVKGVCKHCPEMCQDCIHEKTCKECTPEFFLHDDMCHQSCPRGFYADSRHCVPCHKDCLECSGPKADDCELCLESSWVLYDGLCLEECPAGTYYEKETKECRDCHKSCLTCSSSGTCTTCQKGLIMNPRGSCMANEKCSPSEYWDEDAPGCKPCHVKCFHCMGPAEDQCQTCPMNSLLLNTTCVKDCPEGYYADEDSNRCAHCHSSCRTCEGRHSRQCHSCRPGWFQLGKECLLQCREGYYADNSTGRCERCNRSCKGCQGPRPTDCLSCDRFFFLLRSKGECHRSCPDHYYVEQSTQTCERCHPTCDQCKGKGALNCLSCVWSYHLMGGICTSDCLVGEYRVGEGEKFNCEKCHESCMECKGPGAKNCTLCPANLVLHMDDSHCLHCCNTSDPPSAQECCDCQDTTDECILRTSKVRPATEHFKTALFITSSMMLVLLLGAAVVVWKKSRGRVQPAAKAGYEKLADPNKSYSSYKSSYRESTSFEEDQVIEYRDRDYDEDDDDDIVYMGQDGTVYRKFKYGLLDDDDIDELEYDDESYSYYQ

RVKR [RVKR—NH2, RVKR-NH2]
poor micromolar inhibitor: inhibition potency on PC5/6, in words [1] | inhibition potency on PC7, in words [2] | inhibition potency on PACE4, in words [3]
